Measured values from patent US20090318493A1 (Roche Palo Alto LLC, priority 2008, published 2009).
Like-named read-outs stand apart in the source and are kept apart here.

How the values were obtained:
Format in all cases: binding
hNET transporter = target: T1, hNET transporter (Homo sapiens, UniProt P23975); assay: Human norepinephrine transporter (hNET) scintillation proximity assay, competition with [3H]-Nisoxetine
T1 construct: expressed in transfected cells; membranes prepared
Protocol: This assay was used to determine the affinity of ligands for the hNET transporter by competition with [^3H]-Nisoxetine. As in the hSERT assay of the above example, receptor-containing membranes were pre-coupled to the SPA beads and the binding of the appropriate radioligand to the transporter was measured. The light emission was proportional to the amount of bound radioligand, with unbound radioligand producing no signal.
HEK-293 cells (Tatsumi et al., Eur. J. Pharmacol. 1997, 30, 249-258) stably expressing recombinant hNET (Clone: HEK-hNET #2) were maintained with media (DMEM hi glucose with 10% FBS, 300 μg/ml G418 and 2 mM L-Glutamine) and incubated at 37° C. with 5% CO2. Cells were released from culture flasks using PBS for 1-2 minutes. The cells were subsequently centrifuged at 1000 g's for 5 minutes and resuspended in PBS prior to being used in the membrane preparation.
(§1) Cell membranes were prepared using a membrane preparation buffer of 50 mM TRIS (pH 7.4). Cell membranes were prepared from a single cube (7.5×10^9cells total). Cells were homogenized using a Polytron (setting medium for a 4 second burst). The homogenate was then centrifuged at 48,000×g for 15 minutes, the supernatant subsequently removed and discarded, and the pellet resuspended with fresh buffer. After a second centrifugation, the pellet was re-homogenized and brought to a final volume determined during the assay. Typically, membrane portions were aliquoted in 3-6 mg/mil (w:v). and stored at −80° C.
^3[H] […] Compounds of the invention were diluted from 10 mM to 0.1 nM FAC (10 point curves, whole log /half log dilutions) via a Beckman Biomek 2000 using a serial dilution protocol. The test compounds were then transferred (20 μl/well) and the radioligand was added at 50 μl/well. Membrane and beads were prepared to a ratio of 10 μg: 0.7 mg, with 0.7 mg PVT-WGA Amersham beads (Cat# RPQ0282V) added per well. 130 μl of the membrane: bead mixture was added to the assay plate. The mixtures were allowed to stand at room temperature for one hour, and were then counted on a Packard TopCount LCS, a generic SPA counting protocol settings (Energy Range: Low, Efficiency Mode: Normal, Region A: 1.50-35.00, Region B: 1.50-256.00, Count Time (min.): 0.40, Background Subtract: none, Half-Life Correction: no, Quench Indicator: tSIS, Platemap blank subtraction: No, Cross talk reduction: Off).
The % inhibition was calculated for each compound tested [(Compound CPM at maximum concentration-Non-Specific CPM)/Total CPM*100]. The concentration producing 50% inhibition (IC50) was determined using an iterative non-linear curve fitting technique with Activity Base/Xlfit using the following equation:
(§2) where max=total binding, min=non specific binding, x=concentration (M) of the tested compound and n=Hill slope. The inhibition dissociation constant (Ki) of each compound was determined according to the method of Cheng-Prusoff and then converted into negative logarithm (pKi) of the Ki.

hSERT transporter = target: T2, hSERT transporter (Homo sapiens, UniProt P31645); assay: Human serotonin transporter (hSERT) scintillation proximity assay, competition with [3H]-Citalopram
T2 construct: expressed in transfected cells; membranes prepared
T2 sequence (P31645 whole entry): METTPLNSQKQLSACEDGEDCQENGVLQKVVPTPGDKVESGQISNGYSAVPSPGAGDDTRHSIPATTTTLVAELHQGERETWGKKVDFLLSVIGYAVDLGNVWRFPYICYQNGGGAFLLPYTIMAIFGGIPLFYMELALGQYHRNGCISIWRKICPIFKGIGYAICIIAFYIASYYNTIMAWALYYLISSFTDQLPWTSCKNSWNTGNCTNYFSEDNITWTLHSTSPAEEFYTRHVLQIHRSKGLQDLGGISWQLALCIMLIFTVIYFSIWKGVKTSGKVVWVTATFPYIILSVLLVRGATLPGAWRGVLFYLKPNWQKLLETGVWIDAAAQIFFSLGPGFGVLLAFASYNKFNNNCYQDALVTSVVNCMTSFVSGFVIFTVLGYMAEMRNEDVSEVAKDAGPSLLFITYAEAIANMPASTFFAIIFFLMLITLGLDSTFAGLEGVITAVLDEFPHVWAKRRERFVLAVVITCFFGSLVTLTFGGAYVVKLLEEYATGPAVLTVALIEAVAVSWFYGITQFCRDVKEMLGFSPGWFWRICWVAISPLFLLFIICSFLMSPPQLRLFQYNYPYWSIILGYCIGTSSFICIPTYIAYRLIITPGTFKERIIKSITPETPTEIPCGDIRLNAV
Text: Screening for Human Serotonin Transporter (hSERT) Antagonists Using a Scintillation Proximity Assay (SPA)
The screening assay of this example was used to determine the affinity of ligands at the hSERT transporter by competition with [^3H]-Citalopram.
Scintillation Proximity Assay (SPA) works by bringing radioligand within close proximity to the bead's scintillant to stimulate light emission. In this assay, the receptor-containing membranes were pre-coupled to the SPA beads and the binding of the appropriate radioligand to the transporter was measured. The light emission was proportional to the amount of bound radioligand. Unbound radioligand produced no signal as a result of distant proximity to scintillant (lack of energy transfer).
Cells are released from culture flasks using PBS for 1-2 minutes. The cells were subsequently centrifuged at 1000 g's for 5 minutes and resuspended in PBS prior to being used in the membrane preparation.
as §1, with “(7.5×10^9 cells” for “(7.5×10^9cells”, “3 mg/ml” for “3-6 mg/mil”
Compounds of the invention were diluted from 10 mM to 0.1 nM FAC (10 point curves, whole log/half log dilutions) via a Beckman Biomek 2000 using a serial dilution protocol. The test compounds were then transferred (20 μl/well) and the [^3H]-Citalopram radioligand was added at 50 μl/well. Membrane and beads were prepared to a ratio of 10 μg: 0.7 mg, with 0.7 mg PVT-WGA Amersham beads (Cat# RPQ0282V) added per well. 130 μl of the membrane: bead mixture was added to the assay plate.
The % inhibition was calculated for each compound tested [(Compound counts per minute (CPM) at maximum concentration-Non-Specific CPM)/Total CPM*100].
as §2

hDAT = target: T3, hDAT (Homo sapiens, UniProt Q01959); assay: Human dopamine transporter scintillation proximity assay, competition with [3H]-Vanoxerine
T3 construct: expressed in transfected cells; plated whole cells
T3 sequence (Q01959 whole entry): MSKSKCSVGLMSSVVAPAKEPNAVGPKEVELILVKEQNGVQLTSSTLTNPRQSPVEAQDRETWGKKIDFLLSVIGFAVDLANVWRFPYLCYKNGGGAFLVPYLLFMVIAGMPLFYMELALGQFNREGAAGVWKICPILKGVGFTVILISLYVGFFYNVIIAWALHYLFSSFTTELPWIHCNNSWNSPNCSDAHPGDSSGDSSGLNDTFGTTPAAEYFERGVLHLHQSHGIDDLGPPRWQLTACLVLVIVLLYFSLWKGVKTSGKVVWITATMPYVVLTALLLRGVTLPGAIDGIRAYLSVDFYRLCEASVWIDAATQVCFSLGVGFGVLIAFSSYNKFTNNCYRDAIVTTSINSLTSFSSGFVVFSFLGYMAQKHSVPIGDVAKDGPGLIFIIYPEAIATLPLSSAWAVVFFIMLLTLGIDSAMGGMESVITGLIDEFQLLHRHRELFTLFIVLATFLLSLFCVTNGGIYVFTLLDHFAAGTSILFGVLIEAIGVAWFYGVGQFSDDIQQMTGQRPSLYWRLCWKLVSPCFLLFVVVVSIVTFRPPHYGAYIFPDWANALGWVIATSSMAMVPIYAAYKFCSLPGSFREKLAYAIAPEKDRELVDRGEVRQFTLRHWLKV
Protocol: This assay was used to determine the affinity of ligands for the dopamine transporter by competition with [^3H]-Vanoxerine.
Cells were plated four hours prior to experiment by placing approximately 30,000 cells per well (in PBS) on white, opaque Cell-Tak coated 96 well plates. Extra buffer was apriated from the cell plates using an ELx405 plate washer.
Compounds of the invention were diluted from 10 mM to 0.1 nM FAC (10 point curves, whole log/half log dilutions) via a Beckman Biomek 2000 using a 10-point dilution protocol. The mixtures were allowed to stand at room temperature for 30 minutes, and were then counted on a Packard TopCount LCS, a generic SPA counting protocol settings, Count Time (min.): 0.40, Background Subtract: none, Half-Life Correction: none, Quench Indicator: tSIS, Platemap blank subtraction: none, Cross talk reduction: Off).
The % inhibition was calculated for each compound tested [(Compound CPM at maximum concentration-Non-Specific CPM)/Total CPM*100].
as §2

[1] = Table 1, read-out: pIC50 NET (converted)
[2] = Table 1, read-out: pIC50 SERT (converted)
[3] = Table 1, read-out: pIC50 DAT (converted)

T1 sequence (P23975 whole entry): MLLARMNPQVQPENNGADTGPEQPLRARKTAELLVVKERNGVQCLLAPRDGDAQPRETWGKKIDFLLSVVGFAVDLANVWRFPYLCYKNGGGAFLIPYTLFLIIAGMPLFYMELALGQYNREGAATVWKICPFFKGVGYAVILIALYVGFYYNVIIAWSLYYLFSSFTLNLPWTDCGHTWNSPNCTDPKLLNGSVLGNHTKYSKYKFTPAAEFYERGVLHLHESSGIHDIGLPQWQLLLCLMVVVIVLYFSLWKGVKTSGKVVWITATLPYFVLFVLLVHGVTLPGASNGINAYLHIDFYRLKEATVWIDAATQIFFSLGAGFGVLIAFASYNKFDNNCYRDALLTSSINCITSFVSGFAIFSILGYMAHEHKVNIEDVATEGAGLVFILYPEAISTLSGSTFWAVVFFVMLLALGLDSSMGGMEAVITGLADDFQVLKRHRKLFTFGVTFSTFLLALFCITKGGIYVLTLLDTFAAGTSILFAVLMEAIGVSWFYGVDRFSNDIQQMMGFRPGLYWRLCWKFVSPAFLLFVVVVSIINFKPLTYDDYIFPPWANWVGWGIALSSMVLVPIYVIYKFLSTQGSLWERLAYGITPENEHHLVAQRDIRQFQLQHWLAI

Compound | IC50 (hNET transporter; [1]) [nM] | IC50 (hDAT; [3]) [nM] | IC50 (hSERT transporter) [nM] | further results
Cc1ccc(C(=O)C2(CCC(C)C)CCNCC2)cc1Cl [Compound 38, (3-Chloro-4-methyl-phenyl)-[4-(3-methyl-butyl)-piperidin-4-yl]-methanone] | 135 | 14.8 | – | IC50 (hSERT transporter; [2]): 3.47 nM
CC(C)(C)CC[C@]1(C(=O)c2ccc(Cl)c(Cl)c2)CCCNC1 [Compound 59, (3,4-Dichloro-phenyl)-[(S)-3-(3,3-dimethyl-butyl)-piperidin-3-yl]-methanone] | – | 324 | 14.5 | IC50 (hNET transporter): 10.5 nM
CCCC1(C(=O)c2ccc(Cl)c(OCCC(C)(C)C)c2)CCNC1 (stereo not shown) [Compound 11, [4-Chloro-3-(3,3-dimethyl-butoxy)-phenyl]-(3-propyl-pyrrolidin-3-yl)-methanone] | 631 | 1480 | 52.5 | –
CCCC1(C(=O)c2ccc(Br)c(Oc3ccccc3)c2)CCNC1 (stereo not shown) [Compound 20, (4-Bromo-3-phenoxy-phenyl)-(3-propyl-pyrrolidin-3-yl)-methanone] | 7.94 | – | 12.6 | –
CCC1(C(=O)c2ccc(Cl)c(Oc3ccccc3)c2)CCNC1 (stereo not shown) [Compound 19, (4-Chloro-3-phenoxy-phenyl)-(3-ethyl-pyrrolidin-3-yl)-methanone] | 26.3 | – | 57.5 | IC50 (hDAT): 7.59 nM
CNc1ccc(C(=O)C2(CC(C)C)CCNCC2)cc1Cl [Compound 44, (3-Chloro-4-methylamino-phenyl)-(4-isobutyl-piperidin-4-yl)-methanone] | 51.3 | – | 0.724 | IC50 (hDAT): 57.5 nM
CCCC1(C(=O)c2ccc(Cl)c(-c3ccn[nH]3)c2)CCCNC1 (stereo not shown) [Compound 50, [4-Chloro-3-(2H-pyrazol-3-yl)-phenyl]-(3-propyl-piperidin-3-yl)-methanone] | – | 4270 | 7.76 | IC50 (hNET transporter): 30.9 nM
COC(C)(C)CC1(C(=O)c2ccc(Cl)c(Cl)c2)CCNCC1 [Compound 37, (3,4-Dichloro-phenyl)-[4-(2-methoxy-2-methyl-propyl)-piperidin-4-yl]-methanone] | 105 | 4.79 | – | IC50 (hSERT transporter; [2]): 1.12 nM
CC(C)(C)CCC1(C(=O)c2ccc(Cl)c(Oc3ccc(F)cc3)c2)CCNC1 (stereo not shown) [Compound 8, [4-Chloro-3-(4-fluoro-phenoxy)-phenyl]-[3-(3,3-dimethyl-butyl)-pyrrolidin-3-yl]-methanone] | 77.6 | 1410 | – | IC50 (hSERT transporter; [2]): 120 nM
CCCC1(C(=O)c2ccc(Cl)c(OCc3ccccc3)c2)CCNC1 (stereo not shown) [Compound 10, (3-Benzyloxy-4-chloro-phenyl)-(3-propyl-pyrrolidin-3-yl)-methanone] | 1700 | – | 20.4 | –
CCCC1(C(=O)c2ccc(Cl)c(OCC3CCOCC3)c2)CCNC1 (stereo not shown) [Compound 13, [4-Chloro-3-(tetrahydro-pyran-4-ylmethoxy)-phenyl]-(3-propyl-pyrrolidin-3-yl)-methanone] | – | – | – | IC50 (hSERT transporter; [2]): 145 nM
CC(C)(C)CCC1(C(=O)c2cc(Cl)c(N)c(C(F)(F)F)c2)CCNC1 (stereo not shown) [Compound 7, (4-Amino-3-chloro-5-trifluoromethyl-phenyl)-[3-(3,3-dimethyl-butyl)-pyrrolidin-3-yl]-methanone] | – | 955 | 38 | IC50 (hNET transporter): 15.8 nM
CCCC1(C(=O)c2ccc3ccccc3c2)CCNC1 (stereo not shown) [naphthalen-2-yl-(3-propyl-pyrrolidin-3-yl)-methanone] | – | – | – | Ki (hSERT transporter; SPA, [3H]-Citalopram, approximate value, read-out: pKi human serotonin transporter (converted)): ~0.151 nM
CC(C)CC[C@]1(C(=O)c2cc(F)c(N)c(Cl)c2)CCNC1 [Compound 22, (4-Amino-3-chloro-5-fluoro-phenyl)-[(S)-3-(3-methyl-butyl)-pyrrolidin-3-yl]-methanone] | – | – | – | IC50 (hNET transporter): 33.1 nM; IC50 (hSERT transporter; [2]): 132 nM; IC50 (hDAT): 83.2 nM
CC(C)(C)CC[C@]1(C(=O)c2cc(F)c(N)c(Cl)c2)CCNC1 [Compound 25, (4-Amino-3-chloro-5-fluoro-phenyl)-[(S)-3-(3,3-dimethyl-butyl)-pyrrolidin-3-yl]-methanone] | 0.977 | – | 1.74 | IC50 (hDAT): 0.55 nM
CC(C)C[C@]1(C(=O)c2ccc(N)c(Cl)c2)CCNC1 [Compound 28, (4-Amino-3-chloro-phenyl)-((S)-3-isobutyl-pyrrolidin-3-yl)-methanone] | 3.02 | – | 0.117 | IC50 (hDAT): 0.832 nM
CCCC1(C(=O)c2ccc(Cl)c(-n3ccnc3)c2)CCCNC1 (stereo not shown) [Compound 58, (4-Chloro-3-imidazol-1-yl-phenyl)-(3-propyl-piperidin-3-yl)-methanone] | – | 1480 | 79.4 | –
CC(C)(C)CCC1(C(=O)c2ccc(Cl)c(Oc3ccccc3F)c2)CCNC1 (stereo not shown) [Compound 9, [4-Chloro-3-(2-fluoro-phenoxy)-phenyl]-[3-(3,3-dimethyl-butyl)-pyrrolidin-3-yl]-methanone] | 45.7 | 1120 | – | –
CCCC1(C(=O)c2ccc(Cl)c(-c3cccnc3)c2)CCCNC1 (stereo not shown) [Compound 55, (4-Chloro-3-pyridin-3-yl-phenyl)-(3-propyl-piperidin-3-yl)-methanone] | – | – | – | IC50 (hSERT transporter; [2]): 245 nM
CC(C)(C)CCC1(C(=O)c2ccc(Cl)c(OCc3ccccc3)c2)CCNC1 (stereo not shown) [Compound 5, (3-Benzyloxy-4-chloro-phenyl)-[3-(3,3-dimethyl-butyl)-pyrrolidin-3-yl]-methanone] | 363 | 1450 | – | –
CCCC1(C(=O)c2ccc(-n3ccnc3)c(Br)c2)CCCNC1 (stereo not shown) [Compound 57, (3-Bromo-4-imidazol-1-yl-phenyl)-(3-propyl-piperidin-3-yl)-methanone] | – | 4270 | 91.2 | –
CC[C@@]1(C(=O)c2ccc(Cl)c(Cl)c2)CC[C@@H]2CC[C@H]1N2C [Compound 53, (3,4-Dichloro-phenyl)-((1R,2R,5R)-2-ethyl-8-methyl-8-aza-bicyclo[3.2.1]oct-2-yl)-methanone] | – | – | 41.7 | IC50 (hDAT): 288 nM
CCCC1(C(=O)c2ccc(Cl)c(OC(F)(F)F)c2)CCNC1 (stereo not shown) [Compound 14, (4-Chloro-3-trifluoromethoxy-phenyl)-(3-propyl-pyrrolidin-3-yl)-methanone] | 302 | – | 2.75 | –
